Test: xn = mol fraction of the nth substance listed
Settings: 100 kPa

**Q.** For O + CC[n+]1ccn(C)c1.CS(=O)(=O)[O-], which electrical conductivity (298.15 K, x1 = 1) is on record?
**A.** Its electrical conductivity is 0.0002 S/m.

**Q.** Which speed of sound (293.15 K, x2 = 0.0015) does the source give for CC[n+]1ccn(C)c1.CS(=O)(=O)[O-] + O here?
**A.** The speed of sound was 1779 m/s.

**Q.** What about the speed of sound (293.15 K, x2 = 0.1905) of the same molecule?
**A.** Its speed of sound is 1793 m/s.

**Q.** And the speed of sound (293.15 K, x2 = 0.3226)?
**A.** Its speed of sound is 1808 m/s.

**Q.** And the speed of sound (293.15 K, x2 = 0.4301)?
**A.** The speed of sound was 1817 m/s.

**Q.** And the speed of sound (293.15 K, x2 = 0.619)?
**A.** The speed of sound was 1851 m/s.

**Q.** What about the speed of sound (293.15 K, x2 = 0.7573) of the same molecule?
**A.** Its speed of sound is 1853 m/s.

**Q.** What about the speed of sound (293.15 K, x2 = 0.9048) of the same molecule?
**A.** Its speed of sound is 1803 m/s.

**Q.** And the electrical conductivity (298.15 K, x1 = 0.0119)?
**A.** Its electrical conductivity is 2.19 S/m.

**Q.** And the electrical conductivity (298.15 K, x2 = 0)?
**A.** Its electrical conductivity is 0.45 S/m.

**Q.** And the speed of sound (298.15 K, x2 = 0)?
**A.** Its speed of sound is 1766 m/s.

**Q.** What about the electrical conductivity (298.15 K, x2 = 0.191) of the same molecule?
**A.** The electrical conductivity was 0.707 S/m.

**Q.** And the speed of sound (298.15 K, x2 = 0.3226)?
**A.** Its speed of sound is 1795 m/s.

**Q.** And the electrical conductivity (298.15 K, x2 = 0.3233)?
**A.** Its electrical conductivity is 0.851 S/m.

**Q.** What about the speed of sound (298.15 K, x2 = 0.5054) of the same molecule?
**A.** Its speed of sound is 1818 m/s.

**Q.** What about the electrical conductivity (298.15 K, x2 = 0.5057) of the same molecule?
**A.** Its electrical conductivity is 1.24 S/m.

**Q.** What about the speed of sound (298.15 K, x2 = 0.6206) of the same molecule?
**A.** The speed of sound was 1840 m/s.

**Q.** What about the electrical conductivity (298.15 K, x2 = 0.7542) of the same molecule?
**A.** Its electrical conductivity is 2.37 S/m.

**Q.** What about the speed of sound (298.15 K, x2 = 0.7573) of the same molecule?
**A.** The speed of sound was 1846 m/s.

**Q.** And the electrical conductivity (298.15 K, x2 = 0.902)?
**A.** Its electrical conductivity is 3.74 S/m.

**Q.** And the speed of sound (298.15 K, x2 = 0.9032)?
**A.** The speed of sound was 1791 m/s.

**Q.** And the electrical conductivity (298.15 K, x2 = 0.9651)?
**A.** The electrical conductivity was 3.87 S/m.

**Q.** And the speed of sound (303.15 K, x2 = 0)?
**A.** Its speed of sound is 1753 m/s.

**Q.** What about the speed of sound (303.15 K, x2 = 0.3241) of the same molecule?
**A.** Its speed of sound is 1784 m/s.

**Q.** And the speed of sound (303.15 K, x2 = 0.427)?
**A.** The speed of sound was 1793 m/s.

**Q.** And the speed of sound (303.15 K, x2 = 0.5069)?
**A.** The speed of sound was 1807 m/s.

**Q.** What about the speed of sound (303.15 K, x2 = 0.7542) of the same molecule?
**A.** The speed of sound was 1841 m/s.

**Q.** What about the speed of sound (303.15 K, x2 = 0.9048) of the same molecule?
**A.** Its speed of sound is 1779 m/s.

**Q.** What about the speed of sound (303.15 K, x2 = 0.9662) of the same molecule?
**A.** The speed of sound was 1680 m/s.

**Q.** What about the speed of sound (308.15 K, x2 = 0) of the same molecule?
**A.** The speed of sound was 1743 m/s.

**Q.** And the speed of sound (308.15 K, x2 = 0.192)?
**A.** The speed of sound was 1757 m/s.

**Q.** What about the speed of sound (308.15 K, x2 = 0.3241) of the same molecule?
**A.** The speed of sound was 1771 m/s.

**Q.** What about the speed of sound (308.15 K, x2 = 0.4286) of the same molecule?
**A.** The speed of sound was 1783 m/s.

**Q.** And the speed of sound (308.15 K, x2 = 0.5054)?
**A.** The speed of sound was 1795 m/s.

**Q.** And the speed of sound (308.15 K, x2 = 0.6206)?
**A.** The speed of sound was 1818 m/s.

**Q.** What about the speed of sound (308.15 K, x2 = 0.7558) of the same molecule?
**A.** Its speed of sound is 1838 m/s.

**Q.** And the speed of sound (308.15 K, x2 = 0.9032)?
**A.** Its speed of sound is 1765 m/s.

**Q.** And the speed of sound (313.15 K, x2 = 0.192)?
**A.** Its speed of sound is 1745 m/s.

**Q.** And the speed of sound (313.15 K, x2 = 0.3241)?
**A.** Its speed of sound is 1760 m/s.

**Q.** What about the speed of sound (313.15 K, x2 = 0.5084) of the same molecule?
**A.** The speed of sound was 1784 m/s.

**Q.** What about the speed of sound (313.15 K, x2 = 0.6206) of the same molecule?
**A.** Its speed of sound is 1808 m/s.

**Q.** And the speed of sound (313.15 K, x2 = 0.7558)?
**A.** Its speed of sound is 1830 m/s.

**Q.** And the speed of sound (313.15 K, x2 = 0.9662)?
**A.** Its speed of sound is 1668 m/s.

— a compilation of properties of binary mixtures (doi:10.1016/j.molliq.2016.11.074)
